According to US20140322161A1, “ANTI-IL-6 VACCINE COMPOSITION” (PEPTINOV SAS, priority 2011, published 2014):
Bridges are numbered along the chain shown (N, C = ends). BDB = bisdiazonium-benzidine, coupling agent to KLH

Legend:
[1] = biological target: hIL-6 (Homo sapiens, UniProt P05231); test: ELISA cross-reactivity of sera from OF1 mice immunized with mIL-6-derived peptides, plates covered with human IL-6; assay type: in vivo; conditions: D54 sera diluted 1/500, plates covered with human IL-6
Text: Six peptides derived from murine IL-6 were chemically synthesized and coupled to a carrier protein, KLH (Keyhole Limpet Hemocyanin), five using the coupling agent bisdiazonium-benzidine (BDB) and one with glutaraldehyde. These peptides were then cyclized by the formation of disulfide bonds between cysteines (added or already present).
For each peptide, Oncins France 1 mice (OF1, Charles River Laboratories, L'Arbresle, France) free from specific pathogenic organisms were immunized by intra-muscular route with 100 μg of peptides derived from murine IL-6 mP1, mP2, mP3, mP4, mP5, and mP6 (see Table 1) in complete Freund's adjuvant (CFA) at the start of the experiment (D0) (n=4 per peptide).
Incomplete Freund's adjuvant (IFA) boosters are then given every 15 days, on D15, D30 and D45. The sera from mice on D54 are tested by ELISA with a 1/500th dilution of the serums on plates covered with murine IL-6 or human IL-6 in order to evaluate their cross-reactivity.

[2] = system: C57BL/6 mice; test: Murine model of chronic colitis induced by DSS after vaccination; assay type: in vivo
Text: Chronic colitis induced by Dextran Sodium Sulfate (DSS) is a well-known model of chronic inflammatory disease reproducing the main characteristics of the human diseases (Alex et al. (2009) Inflamm. Bowel Dis. 15:341-352).
Briefly, groups of 6 C57BL/6 mice (Charles River Laboratories, L'Arbresle, France) were formed. The mice were immunized 4 times (once with CFA and three times with IFA) every 15 days with different vaccine preparations. The mice were respectively immunized with PBS (DSS/PBS group), 50 μg per mouse of KLH (DSS/KLH group), and 100 μg per mouse of peptide mP1, mP2, mP3, mP4, mP5 and mP6 coupled with KLH (DSS/mIL-6 peptide group). A control H2O group was also included. Four days after the first booster, colitis was induced by absorption of Dextran Sodium Sulfate (DSS) in water (2%) over 7 days followed by 7 days of water. Three DSS/water cycles were thus carried out, after which the mice received water until the end of the protocol. The clinical signs of the disease appear approximately on the fifth day after the start of treatment with DSS (D26 of the protocol). The development of the disease is measured from the start of the first DSS cycle up to the end of the protocol by a disease activity index (DAI) including weight loss, the presence of blood in the stools and the texture of the stools. The clinical scores are determined as follows: for the texture of the stools a score of 0 (hard stools) to 4 (diarrhoea), for the presence of blood in the stools a score of 0 (absence) to 4 (macroscopic blood), and weight loss a score of 0 (<1%) to 4 (>20%). Each mouse is thus assigned a clinical score with a maximum score of 12.
Then, on D67, the mice are killed by cervical dislocation. The histological sections from colon distal biopsies are scored blind, according to the severity of the inflammation (0: absence, 1: slight, 2: moderate, 3: severe), the extent of the inflammation (0: absence, 1: mucosal, 2: mucosal and sub-mucosal, 3: transmural), crypt damage (0: absence, 1: one-third damaged, 2: ⅔ damaged, 3: only the surface of the epithelium intact, 4: total destruction of the crypts and epithelium). Each mouse is thus assigned a histological score with a maximum score of 10.

[3] = biological target: T1, mIL-6 (Mus musculus, UniProt P08505); test: ELISA of antibody production against mIL-6 in DBA/2 mice immunized with mP2; assay type: in vivo; conditions: 100 μg cyclized mP2 coupled to KLH, day 54 sera, FIG. 9
T1 sequence (P08505 25-211): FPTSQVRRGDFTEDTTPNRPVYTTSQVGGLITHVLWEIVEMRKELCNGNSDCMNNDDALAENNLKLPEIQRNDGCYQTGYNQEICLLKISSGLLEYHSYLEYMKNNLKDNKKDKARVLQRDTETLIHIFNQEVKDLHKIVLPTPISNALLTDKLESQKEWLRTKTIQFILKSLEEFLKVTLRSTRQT
Experimental: (§1) Briefly, three groups of DBA/2 mice (Janvier, France) immunized intramuscularly four times (once in complete Freund's adjuvant (CFA), and three times in incomplete Freund's adjuvant (IFA)) every 15 days with different vaccine preparations: • 8 mice were immunized with 100 μg of the above-described cyclized mP2 peptide coupled to KLH (mP2-Bleo group) and were injected subcutaneously in the back with bleomycin • 6 mice were immunized with 100 μg of mP2 (mP2-Nacl group) and were injected subcutaneously in the back with NaCl (Negative control group) • 8 mice were group immunized with 200 μg of KLH alone (KLH-Bleo group) and were injected subcutaneously in the back with bleomycin. (Positive control group)
(§2) At day 54, the mice were killed. Sera samples were collected and the antibody production against mIL-6 was quantified by ELISA. Furthermore, skin biopsies were performed to evaluate the OH-proline production, indicative of collagen production, and histological sections from the back were also performed to evaluate dermal thickness.

[4] = system: DBA/2 mice; test: Murine model of bleomycin-induced systemic sclerosis after vaccination; assay type: in vivo; conditions: for skin fibrosis (OH-proline content of skin biopsies): mP2-immunized, FIG. 10
Text: The murine model of bleomycin-induced systemic sclerosis is a well-known model of chronic inflammatory disease with main features being dermal thickness together with skin and pulmonary fibrosis due to excessive collagen production (Adamson & Bowden (1974) Am. J. Pathol. 77:185-197)
as §1
The inventors also used an additional control group composed of mice injected intraperitoneally with 100 μL (1 mg/mouse) of murine monoclonal anti IL-6 receptor antibody once a week (n=6).
The subcutaneous injections of 100 μL of bleomycin (0.5 mg/mL) were performed three days after the third boost and then every other day during three weeks in order to induce systemic sclerosis.
as §2
The collagen content was measured in the skin biopsy from each mouse by assaying hydroxyproline (OH-proline) content. OH-proline represents about 13% of collagen amino acids and is measured to evaluate collagen production. […] The absorbance is read at 560 nm.
Dermal thickness from histological sections was then measured in a blind way by two independent experts.

[5] = biological target: T2, murine IL-6 (Mus musculus, UniProt P08505); test: Murine IL-6 neutralization test on murine B9 hybridomas with purified IgGs from immunized rabbits; assay type: cell-based; conditions: purified IgGs from rabbits immunized with the peptide; B9 hybridoma proliferation, XTT
T2 sequence (P08505 25-211): T1 sequence (P08505 25-211)
Experimental: The neutralizing ability of purified IgGs based on serum from rabbits immunized with the peptides mP1, mP2, mP3, mP4, mP5 and mP6 respectively, was tested in a murine IL-6 neutralization test. This test is based on the fact that murine B9 hybridomas proliferate in a dose-dependent manner in response to murine IL-6 (Brakenhoff et al. (1987) J. Immunol. 139:4116-21).
Plating (D0): seed a flat-bottom 96-well plate, treated for cell culture with 5000 cells per well in 50 μL of neutralization medium. (RPMI 1640 without phenol red, 5% v/v Foetal Calf Serum (FCS), 2 mM L-Glutamine, 100 U/mL Penicillin/Streptomycin, […] of β-Mercaptoethanol)
In parallel a so-called “pre-incubation” plate is produced with the desired concentration of murine IL-6, samples and commercial anti-mIL-6 antibodies used as positive control, all in a final volume of 100 μL of neutralization medium.
The pre-incubation plate is left at 37° C. for 2 hours. 50 μL per well is then transferred to the corresponding wells of the plate containing the cells, then the latter is incubated with 5% CO2 at 37° C. for 96 hours.
Development (D4): Add 50 μL of a solution of XTT (for 2,3-bis-(2-methoxy-4-nitro-5-sulfophenyl)-2H-tetrazolium-5-carboxanilide)—0.5% electron coupling reagent to each well. Leave to incubate at 37° C. for 7 hours. Reading of the optical density on a spectrophotometer set at 450 nm.

Chain of hIL-6 (P05231 30-212): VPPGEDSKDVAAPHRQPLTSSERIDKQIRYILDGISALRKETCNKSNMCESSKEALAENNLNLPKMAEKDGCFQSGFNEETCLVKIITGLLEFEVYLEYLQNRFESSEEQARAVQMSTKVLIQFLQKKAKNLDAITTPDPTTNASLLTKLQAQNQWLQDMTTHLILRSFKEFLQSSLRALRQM

development of antibodies against mIL-6 (ELISA) [3]: developed antibodies against mIL-6
Substance: Acetyl+C76MNNDDALAENNLKLPE92C-Y-BDB (Ac-CMNNDDALAENNLKLPECY-{BDB}; disulfide 1-18 (inferred)) [mP2, peptide derived from mIL-6 region 76-92]
cross-reactivity with the human cytokine (ELISA) [1]: apart from the antibodies directed against the peptide mP2 | histological colitis score ([2]; D67 colon distal biopsies, compared with control mice treated with PBS or KLH alone, FIG. 3): significantly reduced histological score | disease activity index (DAI) ([2]; DSS-treated C57BL/6 mice, 100 μg peptide coupled with KLH, compared with the control groups, FIG. 2): significantly reduced disease activity index | reduction of the length of the colon ([2]; DSS-treated C57BL/6 mice, compared with control mice, FIG. 4): significantly less severe reduction of the colon | dermal thickening (histological sections) ([4]; bleomycin model, versus mice immunized with KLH only, identical with anti mIL-6 receptor group, FIG. 11): lower dermal thickening | skin fibrosis (OH-proline content of skin biopsies) ([4]; injected subcutaneously with NaCl (negative control group)): did not develop skin fibrosis | skin fibrosis (OH-proline content of skin biopsies) ([4]; injected subcutaneously with bleomycin, same efficacy as anti IL-6 receptor antibody group): protected from the development of fibrosis | neutralization of the biological activity of murine IL-6 [5]: neutralize the biological activity of murine IL-6 in a dose-dependent manner
